Reference: the supplement of paper PMC10307832

Key:
[1] = compound: COC1=CC=C(C=C1)CN2C=CC3=C2C=C(C=C3)C(=O)NO; test: relative viability (nuclei count vs DMSO), 5 days (fraction); higher = more cells survive
In short: (§1)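 Viability was read as treated-well nuclei divided by vehicle-well nuclei, using the median across plates. Lung cancer cell lines in 1536-well plates were kept overnight at 37 °C, pinned with five √10-spaced library-drug doses, and after 5 days were Hoechst-stained, imaged at 4× and counted in MetaXpress. Plates passed only with control CV below 25% and at least one doubling.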

Veliparib = compound: C[C@]1(c2nc3c(C(N)=O)cccc3[nH]2)CCCN1 [Veliparib]; test: as above
In short: as §1

Question: What does the source list for SW 1573?
Answer: relative viability ([1]; 0.253 µM): 1.05; relative viability ([1]; 0.8 µM): 1.09; relative viability ([1]; 2.53 µM): 1.06; relative viability ([1]; 8 µM): 0.759; relative viability (Veliparib; 0.02 µM): 0.857; relative viability (Veliparib; 0.06325 µM): 0.978; relative viability (Veliparib; 0.2 µM): 0.917; relative viability (Veliparib; 0.6325 µM): 0.885; relative viability (Veliparib; 2 µM): 0.922
